pIC50: −log10 of the molar value.
Key:
[1] = test system: ET-2; settings: for ET-2 estimated IC50: 30 minute preincubation with 100 nM Kunitz domain; for pIC50: read-out: ET-2 estimated IC50, 30 minute preincubation with 100 nM Kunitz domain
Method: (§1) Cloning into this vector placed a His-tag at the C-terminus of the protein that was used to facilitate purification.
(§2) For protein production, E. coli containing the expression vector were grown in media containing ampicillin and 2% glucose to an OD600 of 0.5. At this time the cells were spun down and the media removed. The cell pellet was then resuspended in fresh media containing ampicillin and 1 mM IPTG to induce expression of the protein. The cells were allowed to grow with shaking overnight at 30° C. before harvesting by centrifugation. Periplasmic extracts were then prepared and the MBP-Kunitz fusion purified using immobilized metal ion chromatography.

[2] = molecular target: MTSP-1 (Homo sapiens, UniProt Q9Y5Y6); settings: 30 minute preincubation with 100 nM Kunitz domain
Method: as §1, §2

[3] = test system: Trypsin; settings: read-out: Trypsin estimated IC50, 30 minute preincubation with 100 nM Kunitz domain
Method: as §1, §2

[4] = molecular target: fXa (Homo sapiens, UniProt P00742); settings: 30 minute preincubation with 100 nM Kunitz domain
Method: as §1, §2

[5] = molecular target: TnIV (Homo sapiens, UniProt P35030); settings: 30 minute preincubation with 100 nM Kunitz domain
Method: as §1, §2

Sequence of TnIV (P35030 whole entry, the tested form may be a part): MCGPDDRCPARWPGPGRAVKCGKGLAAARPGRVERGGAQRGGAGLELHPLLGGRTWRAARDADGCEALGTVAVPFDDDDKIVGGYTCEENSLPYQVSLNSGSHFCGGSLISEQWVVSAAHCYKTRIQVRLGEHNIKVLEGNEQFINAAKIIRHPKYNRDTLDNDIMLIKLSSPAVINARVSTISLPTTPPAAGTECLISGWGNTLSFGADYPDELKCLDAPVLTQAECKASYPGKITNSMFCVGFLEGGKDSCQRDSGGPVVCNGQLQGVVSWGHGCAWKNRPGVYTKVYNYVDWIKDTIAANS
Sequence of ET-2 (Q9BYE2 326-559 limits assumed): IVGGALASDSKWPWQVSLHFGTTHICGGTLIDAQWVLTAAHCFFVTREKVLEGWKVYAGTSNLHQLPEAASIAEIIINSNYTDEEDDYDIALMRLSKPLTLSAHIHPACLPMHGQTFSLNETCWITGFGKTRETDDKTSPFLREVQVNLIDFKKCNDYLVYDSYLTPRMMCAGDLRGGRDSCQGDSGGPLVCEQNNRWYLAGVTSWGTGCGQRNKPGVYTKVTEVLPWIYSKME
Sequence of MTSP-1 (Q9Y5Y6 whole entry, species assumed, the tested form may be a part): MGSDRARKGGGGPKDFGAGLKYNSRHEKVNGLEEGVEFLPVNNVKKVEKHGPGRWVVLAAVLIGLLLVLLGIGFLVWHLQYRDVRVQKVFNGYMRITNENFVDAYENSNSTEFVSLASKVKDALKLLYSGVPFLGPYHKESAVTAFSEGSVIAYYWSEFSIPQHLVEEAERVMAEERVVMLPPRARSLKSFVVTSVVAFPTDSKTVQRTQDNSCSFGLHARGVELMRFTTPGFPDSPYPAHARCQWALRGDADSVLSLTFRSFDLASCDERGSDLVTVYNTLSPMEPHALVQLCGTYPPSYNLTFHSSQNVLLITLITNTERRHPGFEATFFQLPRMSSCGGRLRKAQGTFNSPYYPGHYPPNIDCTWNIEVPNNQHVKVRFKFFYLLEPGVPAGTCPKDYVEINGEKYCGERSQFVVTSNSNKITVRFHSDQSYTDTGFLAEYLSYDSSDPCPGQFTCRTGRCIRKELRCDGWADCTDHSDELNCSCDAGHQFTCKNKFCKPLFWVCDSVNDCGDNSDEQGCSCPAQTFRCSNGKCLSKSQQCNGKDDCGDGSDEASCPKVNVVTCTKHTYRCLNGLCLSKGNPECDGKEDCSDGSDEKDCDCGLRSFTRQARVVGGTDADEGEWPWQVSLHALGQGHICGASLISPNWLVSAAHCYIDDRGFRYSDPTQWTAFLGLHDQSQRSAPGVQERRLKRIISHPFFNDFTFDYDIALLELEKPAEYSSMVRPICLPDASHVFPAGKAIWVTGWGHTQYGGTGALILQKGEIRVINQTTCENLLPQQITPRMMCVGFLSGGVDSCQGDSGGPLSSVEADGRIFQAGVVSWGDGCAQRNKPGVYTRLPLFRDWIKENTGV
Sequence of fXa (P00742 235-488 limits assumed): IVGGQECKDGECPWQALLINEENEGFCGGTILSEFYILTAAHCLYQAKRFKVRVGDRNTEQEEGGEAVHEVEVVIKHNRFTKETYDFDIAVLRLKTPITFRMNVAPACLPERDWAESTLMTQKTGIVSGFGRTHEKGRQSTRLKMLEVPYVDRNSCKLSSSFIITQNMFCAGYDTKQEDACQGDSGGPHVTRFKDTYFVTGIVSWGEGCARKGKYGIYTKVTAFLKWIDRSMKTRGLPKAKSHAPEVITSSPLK
Sequence of fXa (P00742 41-179 partner limits assumed): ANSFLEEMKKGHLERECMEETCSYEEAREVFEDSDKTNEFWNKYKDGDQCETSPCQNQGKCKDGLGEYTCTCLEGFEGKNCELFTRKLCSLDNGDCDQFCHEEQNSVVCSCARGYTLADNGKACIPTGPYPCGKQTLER

Sequence | ET-2 estimated IC50 [1] | MTSP-1 estimated IC50 [2] | pIC50 [3] | fXa estimated IC50 [4] | pIC50 [1] | TnIV estimated IC50 [5]
MAAEMHSFCAFKADKGECRASVQRFFFNIFTRQCEEFNYGGCGGNQNRFESLEECKKMCTRDSASSASGDFD [MBP-D12] | IA (IA = <5% inhibition @ 100 nM) | IA (IA = <5% inhibition @ 100 nM) | ~7.52 | – | – | –
MAAEMHSFCAFKADKGFCRAMDIRFFFNIFTRQCEEFIYGGCGGNQNRFESLEECKKMCTRDSASSASGDFD [MBP-1B2] | IA (IA = <5% inhibition @ 100 nM) | IA (IA = <5% inhibition @ 100 nM) | > 8.00 | IA (IA = <5% inhibition @ 100 nM) | – | –
MAAEMHSFCAFKADKGTCRGDFPRFFFNIFTRQCEEFHYGGCGGNQNRFESLEECKKMCTRDSASSASGDFD [MBP-1E9] | IA (IA = <5% inhibition @ 100 nM) | IA (IA = <5% inhibition @ 100 nM) | ≤ 6.00 | IA (IA = <5% inhibition @ 100 nM) | – | –
MAAEMHSFCAFKADPGPCRAIMTRFFFNIFTRQCEEFRYGGCLGNQNRFESLEECKKMCTRDSASSASGDFD [MBP-1G11] | – | IA (IA = <5% inhibition @ 100 nM) | > 8.00 | – | ≤ 6.00 | –
MAAEMHSFCAFKADPGPCRAMFNRFFFNIFTRQCEEFNYGGCSGNQNRFESLEECKKMCTRDSASSASGDFD [MBP-1E6] | – | – | > 8.00 | IA (IA = <5% inhibition @ 100 nM) | ~6.40 | –
MAAEMHSFCAFKADPGQCRAYYRRFFFNIFTRQCEEFVYGGCMGNQNRFESLEECKKMCTRDSASSASGDFD [MBP-1G2] | – | IA (IA = <5% inhibition @ 100 nM) | > 8.00 | – | ~6.52 | –
MAAEMHSFCAFKADQGPCRAAISRFFFNIFTRQCEEFVYGGCEGNQNRFESLEECKKMCTRDSASSASGDFD [MBP-1D9] | – | IA (IA = <5% inhibition @ 100 nM) | ~7.30 | IA (IA = <5% inhibition @ 100 nM) | ≤ 6.00 | –
MAAEMHSFCAFKADQGPCRASVHRFFFNIFTRQCEEFFYGGCLGNQNRFESLEECKKMCTRDSASSASGDFD [MBP-1F8] | IA (IA = <5% inhibition @ 100 nM) | IA (IA = <5% inhibition @ 100 nM) | > 8.00 | IA (IA = <5% inhibition @ 100 nM) | – | IA (IA = <5% inhibition @ 100 nM)
MAAEMHSFCAFKADRGPCRADFHRFFFNIFTRQCEEFHYGGCGGNQNRFESLEECKKMCTRDSASSASGDFD [MBP-1A10] | IA (IA = <5% inhibition @ 100 nM) | – | > 8.00 | IA (IA = <5% inhibition @ 100 nM) | – | –
MAAEMHSFCAFKADRGPCRAYFDRFFFNIFTRQGEEFIYGGCMGNQNRFESLEECKKMCTRDSASSASGDFD [MBP-1G8] | IA (IA = <5% inhibition @ 100 nM) | IA (IA = <5% inhibition @ 100 nM) | ~8.00 | – | – | –
MAAEMHSFCAFKADTGPCRADIKRFFFNIFTRQCEEFRYGGCMGNQNRFESLEECKKMCTRDSASSASGDFD [MBP-1G9] | IA (IA = <5% inhibition @ 100 nM) | – | ~7.22 | IA (IA = <5% inhibition @ 100 nM) | – | IA (IA = <5% inhibition @ 100 nM)
MAAEMHSFCAFKADTGTCRAAMVRFFFNIFTRQCEEFTYGGCEGNQNRFESLEECKKMCTRDSASSASGDFD [MBP-1H8] | IA (IA = <5% inhibition @ 100 nM) | IA (IA = <5% inhibition @ 100 nM) | ~7.52 | IA (IA = <5% inhibition @ 100 nM) | – | IA (IA = <5% inhibition @ 100 nM)

Reference: patent US20050164945A1, “Endotheliase-1 ligands” (priority 2003, published 2005)
